Counter-ions that a name gives are not always drawn. Like-named read-outs stand apart in the source and are kept apart here.
Experiments:
[1] = cited from earlier work
[2] = Drug encapsulation efficiency in PLGA particles; assay type: physicochemical
Procedure: The clear organic mixture was emulsified into an external aqueous phase (5 ml, 2% w/v PVA) with vortexing for 20 seconds followed by sonication on ice at 55 W for 5 minutes. […] Nanospheres were harvested by ultracentrifugation at 16,000 g for 10 min, after which the resultant pellet was re-suspended in DI water by sonication and washed twice with DI water. […] Dynamic light scattering (DLS) was used to characterize the size of the nanospheres. To investigate nanosphere encapsulation in thermo-responsive hydrogels, nanospheres were added into the hydrogel precursor solutions at 0, 2.5, 5, and 10 mg/ml prior to polymerization initiated by the addition of TEMED. The hydrogels were then washed 5 times with PBS every 20 minutes, as described for hydrogels with no nanospheres. Swelling ratio was tested for hydrogels with varying concentration of nanospheres at both room and body temperature.
The drug concentration was determined spectrophotometrically at 240 nm. […] The encapsulation efficiency was calculated as (actual drug loaded/total drug used)×100%.

[3] = test system: endotoxin-induced uveitis (EIU) animal model; details: 24 hours after intravitreal treatment; LPS alone ~45% vasodilation
Procedure: Adult male Lewis rats (weight 310-350 g) were used as an endotoxin-induced uveitis (EIU) animal model. LPS from Salmonella Typhimurium (Sigma Aldrich, St. Louis, Mo.) was mixed with PBS immediately prior to the injection. The animals were divided as followed:
Control: intravitreal injection of LPS at day 0. ˜5 μl intravitreal injection of control gel (no dexamethasone) at 24 hrs after the LPS induction (day 1);
Treatment control: intravitreal injection of LPS at day 0. ˜5 μl intravitreal injection of dexamethasone (10 mg/ml dose, Sigma) at 24 hrs after the LPS induction;
Treatment 1: intravitreal injection of LPS at day 0. ˜5 μl intravitreal injection of dexamethasone hydrogel (10 mg/ml dose, Sigma) at 24 hrs after the LPS induction; and
Treatment 2: intravitreal injection of LPS at day 0. ˜5 μl subconjunctival injection of dexamethasone hydrogel (10 mg/ml dose, Sigma) at 24 hrs after the LPS induction.
The dexamethasone was loaded by equilibrating 0.1 ml of hydrogel in 2 ml of dexamethasone drug solution. SLO images and blood flow measurement were obtained before the LPS induction, 1, 2, 3, and 6 days after the LPS (and dexametheasone treatment). Furthermore, in one animal, the thermo-hydrogel (control) was applied directly to the cornea (simulate eyedrops).

Row | Compound | P (oil/water) (Methylene chloride + methanol / 0.2% PVA) | P (oil/water) (Methylene chloride + methanol / 2% PVA) | P (oil/water) (Methylene chloride + methanol / 2% PVA + 0.25N (NH4)2SO4) | P (oil/water) (Methylene chloride + methanol / 2% PVA + 0.5N NaCl) | solubility in water [1] [mg/mL] | encapsulation efficiency ([2]; dexamethasone 1:2 (w/w) of PLGA) [%] | encapsulation efficiency ([2]; dexamethasone 1:10 (w/w) of PLGA) [%] | degree of dilation of retinal vessels [3] [%]
1 | C[C@@H]1C[C@H]2[C@@H]3CCC4=CC(=O)C=C[C@]4(C)[C@@]3(F)[C@@H](O)C[C@]2(C)[C@@]1(O)C(=O)COP(=O)(O)O [DSP, Dexamethasone 21-phosphate disodium salt] | 0.06 | 0.15 | 0.86 | 0.26 | > 50 | – | – | –
2 | C[C@@H]1C[C@H]2[C@@H]3CCC4=CC(=O)C=C[C@]4(C)[C@@]3(F)[C@@H](O)C[C@]2(C)[C@@]1(O)C(=O)CO [dexamethasone] | – | – | – | – | – | 7.5 | 2.5 | ~15

— patent publication US20120231072A1, “THERMO-RESPONSIVE HYDROGEL COMPOSITIONS” (Chemisches Institut Schaefer AG, priority 2011, published 2012)
